Laboratory results: PMC3857843, “Multiple Transport-Active Binding Sites Are Available for a Single Substrate on Human P-Glycoprotein (ABCB1)” (PLoS ONE, 2013)

Experiments:
all mutant Pgps = experiment: Vanadate-sensitive ATP hydrolysis of Pgp in crude membranes; assay type: biochemical, human; conditions: all mutant Pgps; inhibition measured in presence of verapamil 5 µM
Experimental: Crude membranes were prepared as described previously

F978C mutant Pgp [1] = molecular target: T1, F978C mutant Pgp (Homo sapiens, UniProt P08183, C1074A/C1125A/C1227A/C137A/C431A/C717A/C956A/F978C); experiment: biochemical
Experimental: (§1) Then, samples were photocrosslinked with IAAP at 4°C as described in the Materials and Methods section. Mean values from at least three independent experiments are plotted and error bars depict SD.
(§2) High-Five insect cells (Invitrogen, Carlsbad, CA) were infected with recombinant baculovirus carrying the human MDR1 cDNA cysless WT and various mutant Pgps, with a His6-tag at the C-terminus as described previously. Crude membranes were prepared as described previously
(§3) The crude membranes of High-Five insect cells containing 60-80 µg protein per 100 µL in 50 mM MES-Tris buffer (pH 6.8), were incubated for 10 minutes at 37°C in the absence (control) and presence of compound(s) at indicated concentration.

[2] = molecular target: F728C mutant Pgp (human MDR1) (Homo sapiens, UniProt P08183, C1074A/C1125A/C1227A/C137A/C431A/C717A/C956A/F728C); experiment: in vitro; conditions: pH 6.8
Experimental: as §1, §2, §3

[3] = molecular target: Y307C/Q725C/V982C mutant Pgp (human MDR1) (Homo sapiens, UniProt P08183, C1074A/C1125A/C1227A/C137A/C431A/C717A/C956A/Q725C/V982C/Y307C); experiment: in vitro; conditions: human, pH 6.8
Experimental: as §1, §2, §3

[4] = molecular target: Q725C/V982C mutant Pgp (human MDR1) (Homo sapiens, UniProt P08183, C1074A/C1125A/C1227A/C137A/C431A/C717A/C956A/Q725C/V982C); experiment: in vitro; conditions: pH 6.8
Experimental: as §1, §2, §3

[5] = molecular target: F978C mutant Pgp (human MDR1) (Homo sapiens, UniProt P08183, C1074A/C1125A/C1227A/C137A/C431A/C717A/C956A/F978C); experiment: in vitro; conditions: human, pH 6.8
Experimental: as §1, §2, §3

V982C mutant Pgp [6] = molecular target: T2, V982C mutant Pgp (Homo sapiens, UniProt P08183, C1074A/C1125A/C1227A/C137A/C431A/C717A/C956A/V982C); experiment: biochemical
Experimental: as §1, §2, §3

[7] = molecular target: cysless WT Pgp (human MDR1) (Homo sapiens, UniProt P08183, C1074A/C1125A/C1227A/C137A/C431A/C717A/C956A); experiment: in vitro; conditions: human, pH 6.8
Experimental: as §1, §2, §3

cysless WT Pgp [8] = molecular target: T3, cysless WT Pgp (Homo sapiens, UniProt P08183, C1074A/C1125A/C1227A/C137A/C431A/C717A/C956A); experiment: Inhibition of IAAP photo-labeling of Pgp in crude membranes
Experimental: as §1, §2, §3

[9] = molecular target: Q725C mutant Pgp (human MDR1) (Homo sapiens, UniProt P08183, C1074A/C1125A/C1227A/C137A/C431A/C717A/C956A/Q725C); experiment: in vitro; conditions: pH 6.8
Experimental: as §1, §2, §3

[10] = molecular target: V982C mutant Pgp (human MDR1) (Homo sapiens, UniProt P08183, C1074A/C1125A/C1227A/C137A/C431A/C717A/C956A/V982C); experiment: in vitro; conditions: human, pH 6.8
Experimental: as §1, §2, §3

[11] = molecular target: T4, Y307C/Q725C/V982C mutant Pgp (Homo sapiens, UniProt P08183, C1074A/C1125A/C1227A/C137A/C431A/C717A/C956A/Q725C/V982C/Y307C); experiment: in vitro
Experimental: as §1, §2, §3

F978C mutant Pgp [12] = molecular target: T1, F978C mutant Pgp; experiment: Vanadate-sensitive ATP hydrolysis of Pgp in crude membranes; conditions: Verapamil 50 µM, QZ59-SSS 1 µM, Valinomycin 10 µM
Experimental: (§4) Vanadate-sensitive Pgp-mediated ATP hydrolysis was measured as described in Materials and Methods. […] At least two independent experiments were carried out for each mutant with indicated compounds. Additional information including standard deviations, fold-stimulation or % inhibition, and number of experiments is given in the section (Tables S2 and S3).
as §2
(§5) Crude membranes (10-25 µg protein/100 µ L) from High Five insect cells expressing cysless WT or mutant Pgp were incubated in the presence and absence of sodium orthovanadate (0.3 mM), in a buffer containing 50 mM MES-Tris pH 6.8, 50 mM KCl, 5 mM NaN3, 1 mM EGTA, 1 mM ouabain, 2 mM DTT, and 10 mM MgCl2. […] The reaction was initiated by addition of 5 mM ATP and continued for 20 min at 37°C. […] The reaction was stopped by addition of 100 µ L of 5% SDS and the amount of inorganic phosphate generated was quantified with a colorimetric reaction, as previously described.

Y307C mutant Pgp = Y307C mutant Pgp (Homo sapiens, UniProt P08183, C1074A/C1125A/C1227A/C137A/C431A/C717A/C956A/Y307C); experiment: as above; conditions: Verapamil 50 µM, QZ59-SSS 1 µM, Valinomycin 10 µM, FSBA 1 mM
Experimental: as §4, §2, §5

Q725A mutant Pgp = Q725A mutant Pgp (Homo sapiens, UniProt P08183, C1074A/C1125A/C1227A/C137A/C431A/C717A/C956A/Q725A); experiment: as above; conditions: Verapamil 50 µM, QZ59-SSS 1 µM, Valinomycin 10 µM
Experimental: as §4, §2, §5

Y307C/V982C mutant Pgp = Y307C/V982C mutant Pgp (Homo sapiens, UniProt P08183, C1074A/C1125A/C1227A/C137A/C431A/C717A/C956A/V982C/Y307C); experiment: as above; conditions: Verapamil 50 µM, QZ59-SSS 1 µM, Valinomycin 10 µM, FSBA 1 mM
Experimental: as §4, §2, §5

Q725C/V982C mutant Pgp = Q725C/V982C mutant Pgp (Homo sapiens, UniProt P08183, C1074A/C1125A/C1227A/C137A/C431A/C717A/C956A/Q725C/V982C); experiment: as above; conditions: Verapamil 50 µM, QZ59-SSS 1 µM, Valinomycin 10 µM, FSBA 1 mM
Experimental: as §4, §2, §5

V982C mutant Pgp [13] = molecular target: T2, V982C mutant Pgp; experiment: as above; conditions: Verapamil 50 µM, QZ59-SSS 1 µM, Valinomycin 10 µM, FSBA 1 mM
Experimental: as §4, §2, §5

F728C mutant Pgp = F728C mutant Pgp (Homo sapiens, UniProt P08183, C1074A/C1125A/C1227A/C137A/C431A/C717A/C956A/F728C); experiment: as above; conditions: Verapamil 50 µM, QZ59-SSS 1 µM, Valinomycin 10 µM, FSBA 1 mM
Experimental: as §4, §2, §5

cysless WT Pgp [14] = molecular target: T3, cysless WT Pgp; experiment: as above; conditions: Verapamil 50 µM, QZ59-SSS 1 µM, Valinomycin 10 µM, FSBA 1 mM
Experimental: as §4, §2, §5

F343C/V982C mutant Pgp = F343C/V982C mutant Pgp (Homo sapiens, UniProt P08183, C1074A/C1125A/C1227A/C137A/C431A/C717A/C956A/F343C/V982C); experiment: as above; conditions: Verapamil 50 µM, QZ59-SSS 1 µM, Valinomycin 10 µM, FSBA 1 mM
Experimental: as §4, §2, §5

Q725C mutant Pgp = Q725C mutant Pgp (Homo sapiens, UniProt P08183, C1074A/C1125A/C1227A/C137A/C431A/C717A/C956A/Q725C); experiment: as above; conditions: Verapamil 50 µM, QZ59-SSS 1 µM, Valinomycin 10 µM, FSBA 1 mM
Experimental: as §4, §2, §5

F728C/V982C mutant Pgp = F728C/V982C mutant Pgp (Homo sapiens, UniProt P08183, C1074A/C1125A/C1227A/C137A/C431A/C717A/C956A/F728C/V982C); experiment: as above; conditions: Verapamil 50 µM, QZ59-SSS 1 µM, Valinomycin 10 µM, FSBA 1 mM
Experimental: as §4, §2, §5

[15] = molecular target: T4, Y307C/Q725C/V982C mutant Pgp; experiment: as above; conditions: Verapamil 50 µM, QZ59-SSS 1 µM, Valinomycin 10 µM, FSBA 1 mM
Experimental: as §4, §2, §5

T1 sequence (P08183 whole entry C137A/C431A/C717A/C956A/F978C/C1074A/C1125A/C1227A): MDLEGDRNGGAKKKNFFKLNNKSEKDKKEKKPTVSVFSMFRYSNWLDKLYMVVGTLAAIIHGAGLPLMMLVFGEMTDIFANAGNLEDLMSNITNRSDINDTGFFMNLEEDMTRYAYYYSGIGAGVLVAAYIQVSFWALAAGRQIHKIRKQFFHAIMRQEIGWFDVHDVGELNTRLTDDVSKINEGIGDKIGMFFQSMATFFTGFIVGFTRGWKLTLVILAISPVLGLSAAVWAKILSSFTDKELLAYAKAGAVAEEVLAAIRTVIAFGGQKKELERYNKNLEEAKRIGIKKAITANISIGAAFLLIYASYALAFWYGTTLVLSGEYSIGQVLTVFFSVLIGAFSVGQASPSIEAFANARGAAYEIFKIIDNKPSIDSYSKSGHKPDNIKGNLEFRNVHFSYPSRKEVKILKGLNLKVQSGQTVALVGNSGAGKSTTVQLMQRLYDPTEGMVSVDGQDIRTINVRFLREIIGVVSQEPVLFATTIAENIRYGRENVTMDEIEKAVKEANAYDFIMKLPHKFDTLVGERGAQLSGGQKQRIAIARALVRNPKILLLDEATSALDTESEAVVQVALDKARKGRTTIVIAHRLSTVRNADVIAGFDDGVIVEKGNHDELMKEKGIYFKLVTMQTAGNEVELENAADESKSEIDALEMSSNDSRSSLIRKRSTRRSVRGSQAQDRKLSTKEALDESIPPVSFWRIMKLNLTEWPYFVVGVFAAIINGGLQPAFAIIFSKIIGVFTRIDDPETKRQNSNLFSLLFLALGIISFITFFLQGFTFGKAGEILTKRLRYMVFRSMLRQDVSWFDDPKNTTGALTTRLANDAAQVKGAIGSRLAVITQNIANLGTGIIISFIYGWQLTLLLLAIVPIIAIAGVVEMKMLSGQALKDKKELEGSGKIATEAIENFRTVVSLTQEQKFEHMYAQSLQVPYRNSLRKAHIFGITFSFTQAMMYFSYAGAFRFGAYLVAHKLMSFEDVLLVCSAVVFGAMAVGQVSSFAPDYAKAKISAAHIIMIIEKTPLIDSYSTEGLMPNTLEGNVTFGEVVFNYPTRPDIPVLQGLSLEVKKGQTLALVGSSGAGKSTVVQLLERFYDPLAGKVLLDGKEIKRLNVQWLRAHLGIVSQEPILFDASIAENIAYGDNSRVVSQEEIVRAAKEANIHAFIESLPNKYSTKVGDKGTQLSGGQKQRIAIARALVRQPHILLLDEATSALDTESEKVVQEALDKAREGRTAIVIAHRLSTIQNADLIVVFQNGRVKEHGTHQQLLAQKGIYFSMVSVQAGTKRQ
T3 sequence (P08183 whole entry C137A/C431A/C717A/C956A/C1074A/C1125A/C1227A): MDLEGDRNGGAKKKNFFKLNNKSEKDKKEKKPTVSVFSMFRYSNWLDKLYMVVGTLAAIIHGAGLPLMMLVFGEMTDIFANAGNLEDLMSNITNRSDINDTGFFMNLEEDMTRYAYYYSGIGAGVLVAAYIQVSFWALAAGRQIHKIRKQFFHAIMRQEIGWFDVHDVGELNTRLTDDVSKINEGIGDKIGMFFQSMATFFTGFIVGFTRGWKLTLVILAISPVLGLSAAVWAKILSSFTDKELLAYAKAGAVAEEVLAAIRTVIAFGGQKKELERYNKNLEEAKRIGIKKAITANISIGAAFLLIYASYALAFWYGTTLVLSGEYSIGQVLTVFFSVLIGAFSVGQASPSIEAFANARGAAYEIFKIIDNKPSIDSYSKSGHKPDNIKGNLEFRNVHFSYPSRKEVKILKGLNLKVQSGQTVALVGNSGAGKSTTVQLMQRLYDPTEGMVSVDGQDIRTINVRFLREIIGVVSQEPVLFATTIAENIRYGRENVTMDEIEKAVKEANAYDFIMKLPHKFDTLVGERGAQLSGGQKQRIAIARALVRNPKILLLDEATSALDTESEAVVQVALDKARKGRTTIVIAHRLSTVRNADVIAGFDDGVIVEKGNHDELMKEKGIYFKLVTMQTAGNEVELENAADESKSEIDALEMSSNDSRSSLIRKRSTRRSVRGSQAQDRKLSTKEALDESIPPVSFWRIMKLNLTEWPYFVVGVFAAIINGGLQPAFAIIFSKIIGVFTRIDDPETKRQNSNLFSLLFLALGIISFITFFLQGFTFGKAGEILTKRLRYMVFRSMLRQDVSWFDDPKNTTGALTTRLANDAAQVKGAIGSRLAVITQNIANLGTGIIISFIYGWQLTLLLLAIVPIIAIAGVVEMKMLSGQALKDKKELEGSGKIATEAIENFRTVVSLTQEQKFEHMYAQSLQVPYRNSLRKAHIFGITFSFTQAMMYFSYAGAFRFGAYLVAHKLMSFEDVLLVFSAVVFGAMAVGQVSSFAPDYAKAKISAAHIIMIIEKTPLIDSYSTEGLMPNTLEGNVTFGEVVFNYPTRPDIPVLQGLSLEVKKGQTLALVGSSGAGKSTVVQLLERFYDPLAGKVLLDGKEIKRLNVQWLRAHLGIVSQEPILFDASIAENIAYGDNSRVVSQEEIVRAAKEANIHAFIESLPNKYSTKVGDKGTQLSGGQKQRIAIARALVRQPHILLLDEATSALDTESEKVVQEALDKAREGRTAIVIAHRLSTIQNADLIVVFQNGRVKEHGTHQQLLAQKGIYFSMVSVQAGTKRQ
T4 sequence (P08183 whole entry C137A/Y307C/C431A/C717A/Q725C/C956A/V982C/C1074A/C1125A/C1227A): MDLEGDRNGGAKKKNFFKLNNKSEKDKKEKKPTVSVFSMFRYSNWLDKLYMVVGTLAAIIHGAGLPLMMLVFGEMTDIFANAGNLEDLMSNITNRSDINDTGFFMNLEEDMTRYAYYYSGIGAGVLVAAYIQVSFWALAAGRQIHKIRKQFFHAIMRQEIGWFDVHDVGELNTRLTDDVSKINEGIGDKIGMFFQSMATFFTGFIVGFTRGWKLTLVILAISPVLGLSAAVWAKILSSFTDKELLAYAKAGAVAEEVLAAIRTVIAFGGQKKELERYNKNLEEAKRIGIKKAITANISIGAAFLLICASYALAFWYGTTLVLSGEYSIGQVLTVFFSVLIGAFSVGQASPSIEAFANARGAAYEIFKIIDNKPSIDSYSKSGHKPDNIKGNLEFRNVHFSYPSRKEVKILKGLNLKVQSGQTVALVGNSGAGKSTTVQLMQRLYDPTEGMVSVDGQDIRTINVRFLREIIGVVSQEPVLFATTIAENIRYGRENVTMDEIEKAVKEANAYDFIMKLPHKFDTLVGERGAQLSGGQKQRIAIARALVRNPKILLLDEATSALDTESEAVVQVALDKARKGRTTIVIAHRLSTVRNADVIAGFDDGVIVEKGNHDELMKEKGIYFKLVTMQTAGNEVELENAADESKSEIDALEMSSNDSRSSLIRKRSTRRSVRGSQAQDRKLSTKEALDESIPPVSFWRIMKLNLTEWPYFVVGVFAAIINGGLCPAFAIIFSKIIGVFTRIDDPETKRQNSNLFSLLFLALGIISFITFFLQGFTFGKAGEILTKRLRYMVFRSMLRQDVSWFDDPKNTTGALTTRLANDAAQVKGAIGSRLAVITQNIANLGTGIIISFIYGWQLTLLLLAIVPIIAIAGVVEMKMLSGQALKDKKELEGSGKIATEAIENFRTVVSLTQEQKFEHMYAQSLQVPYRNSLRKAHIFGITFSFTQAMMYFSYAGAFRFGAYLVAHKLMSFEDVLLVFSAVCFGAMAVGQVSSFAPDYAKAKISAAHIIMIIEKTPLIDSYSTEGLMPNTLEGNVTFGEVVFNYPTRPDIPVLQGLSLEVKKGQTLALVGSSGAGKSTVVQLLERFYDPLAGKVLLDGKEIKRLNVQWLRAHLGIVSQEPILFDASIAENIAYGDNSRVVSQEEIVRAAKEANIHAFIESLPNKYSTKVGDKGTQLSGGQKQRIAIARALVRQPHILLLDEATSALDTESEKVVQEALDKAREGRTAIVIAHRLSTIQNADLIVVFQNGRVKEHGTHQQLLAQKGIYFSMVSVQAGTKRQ
Q725A mutant Pgp, sequence (P08183 whole entry C137A/C431A/C717A/Q725A/C956A/C1074A/C1125A/C1227A): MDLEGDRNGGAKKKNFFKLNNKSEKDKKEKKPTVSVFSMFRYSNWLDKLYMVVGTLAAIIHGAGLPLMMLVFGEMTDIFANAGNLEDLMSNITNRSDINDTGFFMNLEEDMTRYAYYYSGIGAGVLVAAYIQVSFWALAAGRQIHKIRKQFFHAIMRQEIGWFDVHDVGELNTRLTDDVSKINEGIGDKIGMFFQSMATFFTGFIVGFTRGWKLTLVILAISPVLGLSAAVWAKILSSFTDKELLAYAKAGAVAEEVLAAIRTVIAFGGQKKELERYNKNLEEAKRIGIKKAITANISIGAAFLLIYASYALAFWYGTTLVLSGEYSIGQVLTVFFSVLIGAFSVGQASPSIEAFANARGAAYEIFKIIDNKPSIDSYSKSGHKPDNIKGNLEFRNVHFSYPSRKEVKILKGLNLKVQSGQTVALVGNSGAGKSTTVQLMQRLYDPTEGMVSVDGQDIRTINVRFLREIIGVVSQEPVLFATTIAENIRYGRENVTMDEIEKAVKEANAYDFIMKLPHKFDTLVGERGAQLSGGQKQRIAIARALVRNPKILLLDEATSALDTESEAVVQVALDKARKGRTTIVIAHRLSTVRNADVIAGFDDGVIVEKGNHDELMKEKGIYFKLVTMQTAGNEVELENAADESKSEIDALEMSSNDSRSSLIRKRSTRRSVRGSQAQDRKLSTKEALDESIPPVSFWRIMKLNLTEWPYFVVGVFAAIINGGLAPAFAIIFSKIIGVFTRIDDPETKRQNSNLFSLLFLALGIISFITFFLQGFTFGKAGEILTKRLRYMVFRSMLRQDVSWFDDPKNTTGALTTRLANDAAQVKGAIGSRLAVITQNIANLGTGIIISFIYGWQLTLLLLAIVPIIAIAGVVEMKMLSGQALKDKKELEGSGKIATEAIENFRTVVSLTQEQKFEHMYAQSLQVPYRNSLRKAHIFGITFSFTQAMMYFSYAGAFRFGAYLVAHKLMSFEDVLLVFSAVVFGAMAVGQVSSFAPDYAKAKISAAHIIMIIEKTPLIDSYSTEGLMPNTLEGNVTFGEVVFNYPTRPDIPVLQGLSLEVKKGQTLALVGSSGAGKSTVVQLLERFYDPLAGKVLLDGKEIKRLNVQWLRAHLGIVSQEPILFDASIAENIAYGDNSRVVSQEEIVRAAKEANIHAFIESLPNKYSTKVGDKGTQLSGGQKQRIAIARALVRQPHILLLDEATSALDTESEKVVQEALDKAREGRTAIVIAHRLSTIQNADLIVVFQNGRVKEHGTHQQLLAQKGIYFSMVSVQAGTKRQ

With `COc1cc2c(cc1OC)CN(CCc1ccc(NC(=O)c3cc(OC)c(OC)cc3NC(=O)c3cnc4ccccc4c3)cc1)CC2` [Tariquidar, tariquidar] the “Modulation of ATP hydrolysis” value (all mutant Pgps) was “found to be inhibited”, the IC50 (F978C mutant Pgp [1]) was 3600 nM and the inhibition at 10 min [2] was 40%. The inhibition at 10 min [3] was 23%, the inhibition at 10 min [4] was 22% and the inhibition at 10 min [5] was 73%. It also gave an IC50 (V982C mutant Pgp [6]) of 700 nM, an inhibition at 10 min [7] of 97 ± 4% and an IC50 (cysless WT Pgp [8]) of 140 ± 30 nM. For the same compound, the inhibition at 10 min [9] was 37%, the inhibition at 10 min [10] was 64% and the “Ability to inhibit IAAP photo-labeling” value [11] was “lose almost completely this ability”.

For `CC(C)[C@@H]1NC(=O)[C@H](C)OC(=O)[C@@H](C(C)C)NC(=O)[C@@H](C(C)C)OC(=O)[C@H](C(C)C)NC(=O)[C@H](C)OC(=O)[C@@H](C(C)C)NC(=O)[C@@H](C(C)C)OC(=O)[C@H](C(C)C)NC(=O)[C@H](C)OC(=O)[C@@H](C(C)C)NC(=O)[C@@H](C(C)C)OC1=O` [valinomycin], the “ATP hydrolysis, Average” value (F978C mutant Pgp [12]) was 18 nmoles Pi/min/mg protein, the “ATP hydrolysis, Fold-stimulation” value (F978C mutant Pgp [12]; relative to basal) was 1.5 and the “ATP hydrolysis, Average” value (Y307C mutant Pgp) was 17 nmoles Pi/min/mg protein. The “ATP hydrolysis, Fold-stimulation” value (Y307C mutant Pgp; relative to basal) was 2.2, the “ATP hydrolysis, Average” value (Q725A mutant Pgp) was 11 nmoles Pi/min/mg protein and the “ATP hydrolysis, Fold-stimulation” value (Q725A mutant Pgp; relative to basal) was 2.1. The “ATP hydrolysis, Average” value (Y307C/V982C mutant Pgp) was 33 nmoles Pi/min/mg protein, the “ATP hydrolysis, Fold-stimulation” value (Y307C/V982C mutant Pgp; relative to basal) was 3.5 and the “ATP hydrolysis, Average” value (Q725C/V982C mutant Pgp) was 5 nmoles Pi/min/mg protein. For the same compound, the “ATP hydrolysis, Average” value (V982C mutant Pgp [13]) was 13 nmoles Pi/min/mg protein, the “ATP hydrolysis, Average” value (F728C mutant Pgp) was 23 nmoles Pi/min/mg protein and the “ATP hydrolysis, Fold-stimulation” value (F728C mutant Pgp; relative to basal) was 3.9. The “ATP hydrolysis, Average” value (cysless WT Pgp [14]) was 40 nmoles Pi/min/mg protein, the “ATP hydrolysis, Fold-stimulation” value (cysless WT Pgp [14]; relative to basal) was 1.9 and the “ATP hydrolysis, Average” value (F343C/V982C mutant Pgp) was 56 nmoles Pi/min/mg protein. For the same compound, the “ATP hydrolysis, Fold-stimulation” value (F343C/V982C mutant Pgp; relative to basal) was 3.1, the “ATP hydrolysis, Average” value (Q725C mutant Pgp) was 12 nmoles Pi/min/mg protein and the “ATP hydrolysis, Fold-stimulation” value (Q725C mutant Pgp; relative to basal) was 2.5. The “ATP hydrolysis, Average” value (F728C/V982C mutant Pgp) was 10 nmoles Pi/min/mg protein, the “ATP hydrolysis, Fold-stimulation” value (F728C/V982C mutant Pgp; relative to basal) was 2.5 and the “ATP hydrolysis, Average” value [15] was 14 nmoles Pi/min/mg protein. The “ATP hydrolysis, Fold-stimulation” value ([15]; relative to basal) was 2.8, the inhibition at 10 min [7] was 82% and the IC50 (cysless WT Pgp [8]) was 600 nM. The “Ability to inhibit IAAP photo-labeling” value ([11]; Y307C/Q725C/V982C) was “lose almost completely this ability”.
